Experiments:
recombinant HIV-1 RTase = recombinant HIV-1 RTase (Human immunodeficiency virus type 1 group M subtype B, UniProt P04585); test: In vitro RTase assay; assay type: biochemical; conditions: IC50 against RTase, 0.5 unit RTase, 1 h, 24 °C
HIV-1NL4-3 [1] = test: Viral replication in A3.01 T cells, p24 […]; assay type: cell-based; conditions: Human immunodeficiency virus 1, NL43, T-cell, read-out: EC50 (1:5 dilution)
HIV-1 L100I = test: Antiviral activity on single RT mutant, TZM-bl F-Luc; assay type: cell-based; conditions: Human immunodeficiency virus 1, TZM-bl
HIV-1 K103N = test: as above; assay type: cell-based; conditions: Human immunodeficiency virus 1, TZM-bl
[2] = test system: HIV-1NL4-3 early and late RT products; test: HIV-1 reverse transcripts in infected A3.01 cells, RT-qPCR; assay type: cell-based; conditions: A3.01, 1 μM, 6 h
HIV-1JRCSF [3] = test: Viral replication in PBMCs, p24 […]; assay type: cell-based; conditions: Human immunodeficiency virus 1, PBMC, read-out: EC50 (1:5 dilution)
HIV-1 G190S = test: Antiviral activity on single RT mutant, TZM-bl F-Luc; assay type: cell-based; conditions: Human immunodeficiency virus 1, TZM-bl
HIV-1JRCSF [4] = test: Antiviral activity, TZM-bl reporter cells, F-Luc; assay type: cell-based; conditions: Human immunodeficiency virus 1, TZM-bl, read-out: EC50 (1:5 dilution)
[5] = test system: HIV-1NL4-3 integrated proviral DNA; test: Integrated proviral DNA in infected A3.01 cells, Alu-PCR; assay type: cell-based; conditions: A3.01, 1 μM
HIV-1 G190C = test: Antiviral activity on single RT mutant, TZM-bl F-Luc; assay type: cell-based; conditions: Human immunodeficiency virus 1, TZM-bl
TZM-bl cells = test: Cell viability test; assay type: cell-based; conditions: 48 h
Cell viability test [6] = assay type: cell-based; conditions: human, TZM-bl cells, CC50 (1:5 dilution)
[7] = test system: HIV-1 12,231 (103N/179F/181C; 41L/215F); test: Antiviral activity on resistant variant, TZM-bl F-Luc; assay type: cell-based; conditions: Human immunodeficiency virus 1, TZM-bl
HIV-1 89.6 = test: Antiviral activity, TZM-bl reporter cells, F-Luc; assay type: cell-based; conditions: Human immunodeficiency virus 1, TZM-bl, read-out: EC50 (1:5 dilution)
PBMCs = test: Cell viability test; assay type: cell-based
Cell viability test [8] = assay type: cell-based; conditions: human, PBMCs
HIV-1NL4-3 [9] = test: Antiviral activity, TZM-bl reporter cells, F-Luc; assay type: cell-based
[10] = test system: HIV-1 12,243 (100I/179D/230L; 41L/67G/74I); test: Antiviral activity on resistant variant, TZM-bl F-Luc; assay type: cell-based; conditions: Human immunodeficiency virus 1, TZM-bl
HIV-1NL4-3 [11] = test: Time-of-addition; assay type: cell-based; conditions: TZM-bl, MOI 0.5, read at 48 h
HIV-1 integrase = HIV-1 integrase (Human immunodeficiency virus type 1 group M subtype B, UniProt P04585); test: HIV-1 integrase assay kit; assay type: biochemical; conditions: 10 µM
[12] = test system: HIV-1 12,227 (101P/103N; 41L/215Y); test: Antiviral activity on resistant variant, TZM-bl F-Luc; assay type: cell-based; conditions: Human immunodeficiency virus 1, TZM-bl
[13] = test system: Tat-mediated viral transcription of LTR; test: Tat-mediated LTR transcription in bl-DTR cells; assay type: cell-based, HIV-1; conditions: doxycycline, 24 h
[14] = test system: HIV-1NL4-3-IRES-GFP proviral DNA; assay type: cell-based; conditions: HEK293T, 48 h
[15] = test system: HIV-1 7407 (103N; 70R/115F); test: Antiviral activity on resistant variant, TZM-bl F-Luc; assay type: cell-based; conditions: Human immunodeficiency virus 1, TZM-bl
HIV-1 G190A = test: Antiviral activity on single RT mutant, TZM-bl F-Luc; assay type: cell-based; conditions: Human immunodeficiency virus 1, TZM-bl
[16] = test system: HIV-1 12,241 (101E/138G/190S); test: Antiviral activity on resistant variant, TZM-bl F-Luc; assay type: cell-based; conditions: Human immunodeficiency virus 1, TZM-bl
HIV-1NL4-3 [17] = test: Viral replication in PBMCs, p24 […]; assay type: cell-based; conditions: Human immunodeficiency virus 1, NL43, PBMC, read-out: EC50 (1:5 dilution)
[18] = test system: HIV-1 7406 (190C; 41L/69S*/74 V/184 V/210W/215Y); test: Antiviral activity on resistant variant, TZM-bl F-Luc; assay type: cell-based; conditions: Human immunodeficiency virus 1, TZM-bl
HIV-1 K101P = test: Antiviral activity on single RT mutant, TZM-bl F-Luc; assay type: cell-based; conditions: Human immunodeficiency virus 1, TZM-bl
A3.01 cells = test: Cell viability test; assay type: cell-based, human; conditions: A3.01
Cell viability test [19] = assay type: cell-based, human; conditions: human, A3.01 cells
[20] = test system: HIV-1 7396 (41L/67N/69N/70R/215F); test: Antiviral activity on resistant variant, TZM-bl F-Luc; assay type: cell-based; conditions: Human immunodeficiency virus 1, TZM-bl
[21] = Human immunodeficiency virus 1, TZM-bl
[22] = Human immunodeficiency virus 1, TZM-bl, 48 h
[23] = Human immunodeficiency virus 1, NL43, TZM-bl, read-out: EC50 (1:5 dilution)

## Cc1nn(C(C)c2nnc(Nc3ccn(Cc4ccccc4)n3)s2)c(C)c1Br (centres unmarked) [BPPT, N-(1-benzyl-1H-pyrazol-3-yl)-5-[1-(4-bromo-3,5-dimethyl-1H-pyrazol-1-yl)ethyl]-1,3,4-thiadiazol-2-amine]
Recombinant HIV-1 RTase
  IC50: 0.14 µM
HIV-1NL4-3 [1]
  EC50: 0.16 ± 0.02 µM
HIV-1 L100I
  EC50: 3.5 ± 0.65 µM
HIV-1 K103N
  EC50: 0.88 ± 0.12 µM
[2]
  synthesis of viral cDNA, early and late stages of RT: greatly inhibited
HIV-1JRCSF [3]
  EC50: 0.04 ± 0.03 µM
HIV-1 G190S
  EC50: 0.28 ± 0.05 µM
HIV-1JRCSF [4]
  EC50: 0.16 ± 0.01 µM
[5]
  integrated proviral DNA: low level of integrated proviral DNA
HIV-1 G190C
  EC50: 0.29 ± 0.03 µM
TZM-bl cells
  no (severe) cytotoxicity up to: > 250 µM
Cell viability test [6]
  CC50: > 50 µM
[7]
  EC50: > 50 µM
HIV-1 89.6
  EC50: 0.09 µM
PBMCs
  no cytotoxicity up to: > 50 µM
Cell viability test [8]
  CC50: > 50 µM
HIV-1NL4-3 [9]; [21]
  EC50: 0.06 µM
[10]
  EC50: > 50 µM
HIV-1NL4-3 [11]
  time postinfection of addition at which the inhibitory effect disappeared: 6 h
HIV-1 integrase
  integrase activity: did not affect
[12]
  EC50: > 50 µM
[13]
  Tat-mediated viral transcription of LTR: did not inhibit
[14]
  GFP signal and level of p24 in the supernatant from transfected cells: not inhibited
[15]
  EC50: 19.7 ± 1.6 µM
HIV-1 G190A
  EC50: 0.07 µM
[16]
  EC50: 4.57 ± 2.3 µM
HIV-1NL4-3 [17]
  EC50: 0.08 ± 0.01 µM
[18]
  EC50: 0.35 ± 0.04 µM
HIV-1 K101P
  EC50: 1.71 ± 0.03 µM
A3.01 cells
  no cytotoxicity up to: > 50 µM
Cell viability test [19]
  CC50: > 50 µM

## Cc1cc(/C=C/C#N)cc(C)c1Nc1ccnc(Nc2ccc(C#N)cc2)n1 [RPV, rilpivirine]
HIV-1NL4-3 [9]; [21]
  EC50: 0.0007 µM

## C[C@@H]1CCO[C@H]2Cn3cc(C(=O)NCc4ccc(F)cc4F)c(=O)c(O)c3C(=O)N12 [DTG, Dolutegravir]
HIV-1NL4-3 [11]
  time postinfection of addition at which the inhibitory effect disappeared: 8 h

## COc1cccc(C=NNC(=S)NN)c1OC [compound 4, 1-amino-3-[(2,3-dimethoxyphenyl)methylideneamino]thiourea]
HIV-1NL4-3 [9]; [22]
  EC50: 6.39 µM

## O=C(Nc1ccc(S(=O)(=O)O)c2ccccc12)c1ccc(=O)oc1 [compound 1, 4-(2-oxo-2H-pyran-5-carboxamido)naphthalene-1-sulfonic acid]
HIV-1NL4-3 [9]; [22]
  EC50: 8.48 µM

## Cc1cn([C@H]2C[C@H](N=[N+]=[N-])[C@@H](CO)O2)c(=O)[nH]c1=O [AZT, zidovudine]
HIV-1 L100I
  EC50: 0.07 ± 0.01 µM
HIV-1 K103N
  EC50: 0.11 ± 0.01 µM
[20]
  EC50: 3.83 ± 1.21 µM
HIV-1 G190S
  EC50: 0.08 ± 0.01 µM
HIV-1 G190C
  EC50: 0.05 ± 0.01 µM
[7]
  EC50: 0.63 ± 0.19 µM
HIV-1NL4-3 [9]; [22]
  EC50: 0.29 ± 0.06 µM
[10]
  EC50: 0.29 ± 0.01 µM
HIV-1NL4-3 [11]
  time postinfection of addition at which the inhibitory effect disappeared: 2 h
[12]
  EC50: 1 ± 0.13 µM
[15]
  EC50: > 50 µM
HIV-1 G190A
  EC50: 0.11 ± 0.01 µM
[16]
  EC50: 0.08 ± 0.03 µM
[18]
  EC50: 15.1 ± 2.16 µM
HIV-1 K101P
  EC50: 0.04 µM

## Cc1nnc(C(=O)NC(C)(C)c2nc(C(=O)NCc3ccc(F)cc3)c(O)c(=O)n2C)o1 [RAL, raltegravir]
HIV-1NL4-3 [11]
  time postinfection of addition at which the inhibitory effect disappeared: 8 h

## CCc1cc(=O)oc2cc(OC(CC)C(=O)c3ccccc3)ccc12 (centres unmarked) [compound 2, 4-ethyl-7-((1-oxo-1-phenylbutan-2-yl)oxy)-2H-chromen-2-one]
HIV-1NL4-3 [9]; [22]
  EC50: 4.89 µM

## CC(C)[C@]12O[C@H]1[C@@H]1O[C@]13[C@]1(O[C@H]1C[C@H]1C4=C(CC[C@@]13C)C(=O)OC4)[C@@H]2O [TPL, triptolide]
HIV-1NL4-3 [11]
  time postinfection of addition at which the inhibitory effect disappeared: 24 h

## Enfuvirtide [T20]
HIV-1NL4-3 [11]
  time postinfection of addition at which the inhibitory effect disappeared: 1 h

## Cc1ccnc2c1NC(=O)c1cccnc1N2C1CC1 [NVP, nevirapine]
HIV-1 L100I
  EC50: 0.18 ± 0.04 µM
HIV-1 K103N
  EC50: 4.55 ± 0.27 µM
[20]
  EC50: 0.35 ± 0.07 µM
HIV-1 G190S
  EC50: 32.7 ± 4.49 µM
HIV-1 G190C
  EC50: 23.8 ± 3.31 µM
Cell viability test [6]
  CC50: > 50 µM
[7]
  EC50: > 50 µM
HIV-1NL4-3 [9]; [23]
  EC50: 0.08 ± 0.18 µM
HIV-1NL4-3 [9]; [22]
  EC50: 0.08 ± 0.02 µM
[10]
  EC50: 21.4 ± 2.21 µM
[12]
  EC50: > 50 µM
[15]
  EC50: > 50 µM
HIV-1 G190A
  EC50: 15.7 ± 2.73 µM
[16]
  EC50: > 50 µM
[18]
  EC50: > 50 µM
HIV-1 K101P
  EC50: 8.31 ± 0.6 µM

## O=C1Nc2ccc(Cl)cc2[C@@](C#CC2CC2)(C(F)(F)F)O1 [EFV, efavirenz]
HIV-1 L100I
  EC50: 0.02 µM
HIV-1 K103N
  EC50: 0.04 ± 0.01 µM
[20]
  EC50: 0.001 µM
HIV-1 G190S
  EC50: 0.12 ± 0.01 µM
HIV-1 G190C
  EC50: 0.39 ± 0.09 µM
Cell viability test [6]
  CC50: 25.9 µM
[7]
  EC50: 0.18 ± 0.22 µM
HIV-1NL4-3 [9]; [23]
  EC50: 0.001 µM
HIV-1NL4-3 [9]; [22]
  EC50: 0.001 µM
[15]
  EC50: 0.35 ± 0.03 µM
HIV-1 G190A
  EC50: 0.01 µM
HIV-1 K101P
  EC50: 0.02 µM

## CC(C)(C)c1cc([N+](=O)[O-])cc(C=O)c1O [compound 3, 3-tert-butyl-2-hydroxy-5-nitrobenzaldehyde]
HIV-1NL4-3 [9]; [22]
  EC50: 1.47 µM
